According to PubChem BioAssay AID248 (DTP/NCI, 2004):
Values joined by “and” are separate entries in the source; they are usually repeats but may differ in a detail not shown here. Equal values may be shown once. Toxic doses and inconclusive results are not listed. Rule as the data show it: active = T/C of 150% or more; inactive = T/C below 125%.

Tested on: L1210 leukemia ip in BDF1 mice, survival T/C
Assay: NCI In Vivo Anticancer Drug Screen. Data for tumor model L1210 Leukemia (intraperitoneal) in B6D2F1 (BDF1) mice
Conditions: endpoint: mean survival time, higher = longer survival
Summary of the method: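 Mice bearing the transplanted tumor received compound or vehicle. Survival of the treated group was divided by that of the vehicle-treated control group to give the ratio.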

[1] = dose: 100.0 mg/kg/injection, schedule: Q04DX003 (ip), vehicle: Klucel (hydroxypropylcellulose) (HPC)
[2] = dose: 200.0 mg/kg/injection, schedule: Q04DX003 (ip), vehicle: Klucel (hydroxypropylcellulose) (HPC)
[3] = dose: 400.0 mg/kg/injection, schedule: Q04DX003 (ip), vehicle: Klucel (hydroxypropylcellulose) (HPC)
[4] = dose: 100.0 mg/kg/injection, schedule: Q04DX003 (ip), vehicle: saline
[5] = dose: 200.0 mg/kg/injection, schedule: Q04DX003 (ip), vehicle: saline
[6] = dose: 100.0 mg/kg/injection, schedule: Q04DX003 (ip), vehicle: saline with Tween-80
[7] = dose: 200.0 mg/kg/injection, schedule: Q04DX003 (ip), vehicle: saline with Tween-80
[8] = dose: 400.0 mg/kg/injection, schedule: Q04DX003 (ip), vehicle: saline with Tween-80
[9] = dose: 100.0 mg/kg/injection, schedule: Q04DX002 (ip), vehicle: saline with Tween-80
[10] = dose: 12.5 mg/kg/injection, schedule: Q04DX003 (ip), vehicle: Klucel (hydroxypropylcellulose) (HPC)
[11] = dose: 25.0 mg/kg/injection, schedule: Q04DX003 (ip), vehicle: Klucel (hydroxypropylcellulose) (HPC)
[12] = dose: 50.0 mg/kg/injection, schedule: Q04DX003 (ip), vehicle: Klucel (hydroxypropylcellulose) (HPC)
[13] = dose: 100.0 mg/kg/injection, schedule: Q01DX009 (ip), vehicle: Klucel (hydroxypropylcellulose) (HPC)
[14] = dose: 200.0 mg/kg/injection, schedule: Q01DX009 (ip), vehicle: Klucel (hydroxypropylcellulose) (HPC)
[15] = dose: 400.0 mg/kg/injection, schedule: Q01DX009 (ip), vehicle: Klucel (hydroxypropylcellulose) (HPC)
[16] = dose: 100.0 mg/kg/injection, schedule: Q01DX009 (ip), vehicle: saline with Tween-80
[17] = dose: 200.0 mg/kg/injection, schedule: Q01DX009 (ip), vehicle: saline with Tween-80

Measured: T/C

CC[N+](C)(CC)CCCN(C)C(=O)C(c1ccccc1)c1ccccc1
inactive: dose: 12.5 mg/kg/injection, schedule: Q01DX001 (ip), vehicle: saline 92 % of control | dose: 12.5 mg/kg/injection, schedule: Q04DX003 (ip), vehicle: saline 98 % of control | dose: 25.0 mg/kg/injection, schedule: Q01DX001 (ip), vehicle: saline 103 % of control | dose: 25.0 mg/kg/injection, schedule: Q04DX003 (ip), vehicle: saline 93 % of control | dose: 50.0 mg/kg/injection, schedule: Q01DX001 (ip), vehicle: saline 92 % of control | dose: 50.0 mg/kg/injection, schedule: Q04DX003 (ip), vehicle: saline 93 % of control | dose: 75.0 mg/kg/injection, schedule: Q04DX003 (ip), vehicle: saline 97 % of control

c1ccc(SC23CC4CC(CC(C4)C2)C3)nc1
inactive: dose: 100.0 mg/kg/injection, schedule: Q01DX003 (ip), vehicle: Klucel (hydroxypropylcellulose) (HPC) 100 % of control | [1] 94 % of control | dose: 200.0 mg/kg/injection, schedule: Q01DX003 (ip), vehicle: Klucel (hydroxypropylcellulose) (HPC) 89 % of control | [2] 91 % of control | dose: 400.0 mg/kg/injection, schedule: Q01DX003 (ip), vehicle: Klucel (hydroxypropylcellulose) (HPC) 94 % of control | [3] 102 % of control

CC(/C=N/N(C)C(=N)N)=N\N(C)C(=N)N
inactive: dose: 15.0 mg/kg/injection, schedule: Q01DX Z (ip), vehicle: saline 88 % of control | dose: 30.0 mg/kg/injection, schedule: Q01DX Z (ip), vehicle: saline 103 % of control | dose: 60.0 mg/kg/injection, schedule: Q01DX Z (ip), vehicle: saline 98 % of control | dose: 120.0 mg/kg/injection, schedule: Q01DX Z (ip), vehicle: saline 102 % of control | dose: 120.0 mg/kg/injection, schedule: Q01DX Z (oral), vehicle: saline 103 % of control | dose: 240.0 mg/kg/injection, schedule: Q01DX Z (oral), vehicle: saline 97 % of control | dose: 480.0 mg/kg/injection, schedule: Q01DX Z (oral), vehicle: saline 106 % of control | dose: 960.0 mg/kg/injection, schedule: Q01DX Z (oral), vehicle: saline 113 % of control

Cn1c(=O)c2c(ncn2CC[n+]2cccc(C(N)=O)c2)n(C)c1=O
inactive: [4] 101 % of control | [5] 97 % of control

CC(=O)/C(C)=C/c1ccccc1
inactive: dose: 100.0 mg/kg/injection, schedule: Q01DX001 (ip), vehicle: other 107 % of control | [6] 100 % of control | dose: 200.0 mg/kg/injection, schedule: Q01DX001 (ip), vehicle: other 96 % of control | [7] 105 % of control | dose: 400.0 mg/kg/injection, schedule: Q01DX001 (ip), vehicle: other 91 % of control | [8] 100 % of control

CCOC1CC2(c3ccccc3)OC(=O)OC12c1ccccc1 (stereo unspecified)
inactive: dose: 25.0 mg/kg/injection, schedule: Q04DX002 (ip), vehicle: saline with Tween-80 115 % of control | dose: 50.0 mg/kg/injection, schedule: Q04DX002 (ip), vehicle: saline with Tween-80 101 % of control | [9] 115 % of control

CC(=O)NC(=S)Nc1ccccc1
inactive: [10] 95 % of control | [11] 117 % of control | [12] 101 % of control

O=C(O)/C(=C\CCCCC/C=C(\CCO)C(=O)O)CCO
inactive: [13] 100 % of control | [1] 98 % of control | [14] 96 % of control | [2] 100 % of control | [15] 99 % of control | [3] 91 % of control

CCOC(=O)C1C2C=CC(N3C(=O)c4ccccc4C3=O)CC21 (stereo unspecified)
inactive: dose: 100.0 mg/kg/injection, schedule: Q01DX009 (ip), vehicle: gum acacia 92 % of control | dose: 200.0 mg/kg/injection, schedule: Q01DX009 (ip), vehicle: gum acacia 91 % of control | dose: 400.0 mg/kg/injection, schedule: Q01DX009 (ip), vehicle: gum acacia 97 % of control

[N-]=[N+]=NC1=C(c2ccccc2)C(=O)C(N=[N+]=[N-])=C(c2ccccc2)C1=O
inactive: dose: 100.0 mg/kg/injection, schedule: Q01DX001 (ip), vehicle: saline 88 % of control | dose: 200.0 mg/kg/injection, schedule: Q01DX001 (ip), vehicle: saline 95 % of control | dose: 400.0 mg/kg/injection, schedule: Q01DX001 (ip), vehicle: saline 90 % of control

C=CCCN1CCCC1
inactive: dose: 1.5 mg/kg/injection, schedule: Q01DX009 (ip), vehicle: saline with Tween-80 100 % of control | dose: 3.0 mg/kg/injection, schedule: Q01DX009 (ip), vehicle: saline with Tween-80 93 % of control | dose: 6.0 mg/kg/injection, schedule: Q01DX009 (ip), vehicle: saline with Tween-80 103 % of control | dose: 8.0 mg/kg/injection, schedule: Q04DX003 (ip), vehicle: saline with Tween-80 97 % of control and 105 % of control | dose: 12.0 mg/kg/injection, schedule: Q01DX009 (ip), vehicle: saline with Tween-80 98 % of control | dose: 12.0 mg/kg/injection, schedule: Q04DX003 (ip), vehicle: saline with Tween-80 100 % of control and 105 % of control | dose: 18.0 mg/kg/injection, schedule: Q04DX003 (ip), vehicle: saline with Tween-80 103 % of control and 110 % of control | dose: 25.0 mg/kg/injection, schedule: Q01DX009 (ip), vehicle: saline with Tween-80 88 % of control | dose: 25.0 mg/kg/injection, schedule: Q04DX003 (ip), vehicle: saline with Tween-80 103 % of control | dose: 50.0 mg/kg/injection, schedule: Q04DX003 (ip), vehicle: saline with Tween-80 109 % of control

CN(C)N=Nc1ccc(Cl)cc1C(N)=O
inactive: [16] 104 % of control | [6] 105 % of control | [17] 110 % of control | [7] 102 % of control | [8] 100 % of control

COc1ccc(Cl)cc1NC(=O)CC(C)=O
inactive: [13] 101 % of control | [1] 97 % of control | [14] 101 % of control | [2] 99 % of control | [15] 95 % of control | [3] 94 % of control

Cc1nc(N)[nH]c(=O)c1CCCNc1ccc(CCC(=O)CCl)cc1
inactive: dose: 50.0 mg/kg/injection, schedule: Q01DX Z (ip), vehicle: carboxymethylcellulose (CMC) 94 % of control | dose: 100.0 mg/kg/injection, schedule: Q01DX Z (ip), vehicle: carboxymethylcellulose (CMC) 94 % of control | dose: 200.0 mg/kg/injection, schedule: Q01DX Z (ip), vehicle: carboxymethylcellulose (CMC) 86 % of control

COC(=O)c1ccc(OC(=O)Nc2ccc(Br)cc2)cc1
inactive: [13] 102 % of control | [14] 92 % of control | [15] 92 % of control

CCO/C=C(/C(=O)OCC)C(=O)C(OCC)OCC
inactive: dose: 100.0 mg/kg/injection, schedule: Q01DX009 (ip), vehicle: saline 101 % of control | [4] 95 % of control | dose: 200.0 mg/kg/injection, schedule: Q01DX009 (ip), vehicle: saline 101 % of control | [5] 97 % of control | dose: 400.0 mg/kg/injection, schedule: Q01DX009 (ip), vehicle: saline 98 % of control | dose: 400.0 mg/kg/injection, schedule: Q04DX003 (ip), vehicle: saline 94 % of control

O=C(O)c1ccccc1C(c1ccccc1)c1ccccc1
inactive: [6] 98 % of control | [7] 93 % of control | [8] 98 % of control

COc1ccc(N(Cc2ccccc2)c2nn[nH]n2)cc1
inactive: [1] 93 % of control | [2] 90 % of control | [3] 97 % of control

CC(C)(O)C1C2OC(=O)C1C1(O)CC3OC34C(=O)OC2C14C (stereo unspecified)
inactive: [10] 100 % of control | [11] 100 % of control | [12] 100 % of control | dose: 75.0 mg/kg/injection, schedule: Q01DX001 (ip), vehicle: other 102 % of control | dose: 150.0 mg/kg/injection, schedule: Q01DX001 (ip), vehicle: other 109 % of control

Nc1cccc(CCCCOc2ccccc2)c1
inactive: [16] 97 % of control | [6] 97 % of control | [17] 98 % of control | [7] 103 % of control | [8] 105 % of control

CC(C)(C)c1ccc(C(c2ccc(C(C)(C)C)cc2)C(Cl)Cl)cc1
inactive: [1] 113 % of control | [2] 96 % of control | [3] 97 % of control

O=S(=O)(O)n1nc2ccccc2c1-c1ccccc1
inactive: [9] 96 % of control | dose: 200.0 mg/kg/injection, schedule: Q04DX002 (ip), vehicle: saline with Tween-80 96 % of control
